Reference: patent publication US6448249B1, “Substituted 1,2,4-triazolo[3,4-A]phthalazine derivatives as GABAα5 ligands” (Merck Sharp & Dohme Ltd., priority 1998, dated 2002)

Experiments:
[1] = molecular target: T1, human GABAA receptors containing the α5 subunit (Homo sapiens, UniProt P18507+P31644); test: [3H]-flumazenil (Ro 15-1788) displacement binding assay; details: α5β3γ2 stably expressed in Ltk− cells; read-out: Ki value for displacement of [3H]Ro 15-1788 from the α5 subunit of the human GABAA receptor
T1 construct: expressed in transfected cells; host or cells: Ltk- cells (mouse fibroblasts), stably expressing
T1 sequence (P31644 32-462): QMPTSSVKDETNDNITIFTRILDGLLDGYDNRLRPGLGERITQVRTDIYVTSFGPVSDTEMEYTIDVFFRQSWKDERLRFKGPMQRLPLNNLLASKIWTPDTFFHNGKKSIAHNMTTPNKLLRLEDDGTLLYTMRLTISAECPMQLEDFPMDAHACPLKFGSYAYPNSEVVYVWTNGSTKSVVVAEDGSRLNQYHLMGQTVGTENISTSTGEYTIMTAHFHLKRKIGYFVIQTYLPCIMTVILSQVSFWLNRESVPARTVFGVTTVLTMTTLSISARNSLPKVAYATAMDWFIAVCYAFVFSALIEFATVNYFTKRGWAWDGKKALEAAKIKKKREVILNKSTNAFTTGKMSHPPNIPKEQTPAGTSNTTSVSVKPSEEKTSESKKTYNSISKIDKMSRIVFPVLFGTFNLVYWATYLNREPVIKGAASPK
T1 sequence (P28472 26-473 partner): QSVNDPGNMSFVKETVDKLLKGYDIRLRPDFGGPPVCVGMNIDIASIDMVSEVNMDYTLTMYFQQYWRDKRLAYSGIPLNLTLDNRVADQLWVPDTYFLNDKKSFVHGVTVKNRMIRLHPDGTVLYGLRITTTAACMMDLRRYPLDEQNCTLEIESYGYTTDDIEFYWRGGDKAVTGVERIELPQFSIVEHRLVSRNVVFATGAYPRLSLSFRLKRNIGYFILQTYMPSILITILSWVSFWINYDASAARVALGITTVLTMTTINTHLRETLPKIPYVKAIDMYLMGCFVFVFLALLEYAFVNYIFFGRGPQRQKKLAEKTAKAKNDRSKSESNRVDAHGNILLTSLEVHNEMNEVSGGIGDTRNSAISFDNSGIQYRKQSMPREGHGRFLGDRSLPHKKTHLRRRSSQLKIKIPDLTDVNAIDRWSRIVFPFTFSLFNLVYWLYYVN
T1 sequence (P18507 40-467 limits assumed): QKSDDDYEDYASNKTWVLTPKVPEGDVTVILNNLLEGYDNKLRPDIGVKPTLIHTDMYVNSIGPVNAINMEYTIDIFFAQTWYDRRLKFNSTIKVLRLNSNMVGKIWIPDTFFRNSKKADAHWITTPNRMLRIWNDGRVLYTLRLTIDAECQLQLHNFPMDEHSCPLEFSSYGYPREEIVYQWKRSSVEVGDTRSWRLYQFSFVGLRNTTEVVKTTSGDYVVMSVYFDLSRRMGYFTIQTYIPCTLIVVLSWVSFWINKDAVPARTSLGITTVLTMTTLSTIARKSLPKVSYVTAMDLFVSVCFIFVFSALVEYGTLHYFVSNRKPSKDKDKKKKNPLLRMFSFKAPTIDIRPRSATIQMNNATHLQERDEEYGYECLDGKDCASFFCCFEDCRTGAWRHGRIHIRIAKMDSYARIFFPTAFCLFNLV
Description: Phosphate buffered saline (PBS).
Assay buffer: 10 mM KH2PO4, 100 mM KCl, pH 7.4 at room temperature.
[^3H]-Flumazenil (18 nM for α1β3γ2 cells; 18 nM for α2β3γ2 cells; 10 nM for α3β3γ2 cells; 10 nM for α5β3γ2 cells) in assay buffer.
Flunitrazepam 100 μM in assay buffer.
Cells resuspended in assay buffer (1 tray to 10 ml).
Supernatant is removed from cells. PBS (approximately 20 ml) is added. The cells are scraped and placed in a 50 ml centrifuge tube. The procedure is repeated with a further 10 ml of PBS to ensure that most of the cells are removed. The cells are pelleted by centrifuging for 20 min at 3000 rpm in a benchtop centrifuge, and then frozen if desired. The pellets are resuspended in 10 ml of buffer per tray (25 cm×25 cm) of cells.
Can be carried out in deep 96-well plates or in tubes. Each tube contains:
50 μl of [^3H]-flumazenil (final concentration for α1β3γ2: 1.8 nM; for α2β3γ2: 1.8 nM; for α3β3γ2: […]; for α5β3γ2: 1.0nM). […]
Assays are incubated for 1 hour at […], then filtered using either a Tomtec or Brandel cell harvester onto GF/B filter followed by 3×3 ml washes with ice cold assay buffer. Filters are dried and counted by liquid scintillation counting. […] Binding parameters are determined by non-linear least squares regression analysis, from which the inhibition constant Ki can be calculated for the test compound.

cognition = test: rat water maze test (Morris); assay type: in vivo
Text: Cognition enhancement can be shown by testing the compound in the Morris watermaze as reported by McNamara and Skelton, Psychobiology, 21:101-108. The functional efficacy at the various receptor subtypes can be calculated using the method disclosed in WO-A-9625948.

[2] = receptor occupancy at the minimum effective dose; assay type: in vivo; details: Rattus norvegicus; at dose of 0.3 mg/kg

melting point [°C] | Ki [1] [nM] | Compound | cognition enhancement in the rat water maze test (cognition; demonstrated at 0.3 mg/kg and also at 3 mg/kg) | minimum effective dose for cognition enhancement (cognition; rat water maze) [mg/kg] | receptor occupancy at 0.3 mg/kg [2] [%]
247.5 to 249 |  | Cc1cc(-c2nnc3c4ccccc4c(OCc4cccc(Br)n4)nn23)no1 [Reference Example 2, 6-(6-Bromopyridin-2-yl)methyloxy-3-(5-methylisoxazol-3-yl)-1,2,4-triazolo[3,4-a]phthalazine] |  |  | 
 | ≤ 100 | Cc1cc(-c2nnc3c4ccccc4c(OCc4cn(C)nn4)nn23)no1 [compound of the present invention, 3-(5-methylisoxazol-3-yl)-6-(1-methyl-1,2,3-triazol-4-yl)methyloxy-1,2,4-triazolo[3,4-a]phthalazine] | enhance cognition | 0.3 | 40
